pIC50: −log10 of the molar value. Where a name gives a salt, the structure may show the parent alone.
How the values were obtained:
[1] = Retentivity in blood (free pemetrexed concentration in blood plasma); assay type: in vivo; settings: mouse, intravenous, 6 mg/kg in terms of drug amount, tail vein injection, male C3H mice
Method: Further, the liposome composition of Example 10 at a dose of 6 mg/kg in terms of drug amount was administered via tail vein injection to 8-week old male C3H mice under the non-fasting conditions. Blood was collected at 15 minutes, 1 hour, 4 hours, and 24 hours after the administration was completed, and the free pemetrexed concentration in blood plasma was quantified to calculate a T1/2.

[2] = system: Capan-1 (human pancreatic cancer cell line); assay: In vitro cancer cell growth inhibition; assay type: cell-based; settings: Capan-1, cultured 144 hours, Luminescent Cell Viability Assay, read-out: IC50 (drug effect concentration that inhibits 50% of cancer cell growth)
Method: 2×10^3 cells/[…]/well of Capan-1 (human pancreatic cancer cell line) were seeded onto a 96-well plate. Subsequently, a free drug (gemcitabine hydrochloride) solution, and a drug encapsulated in the liposome compositions of Example 4 and Comparative Examples 4 and 5 were added at each concentration, and cultured until after 144 hours. The cell viability was calculated from the amount of luminescence obtained by a Luminescent Cell Viability Assay after the completion of the culture. In addition, a drug effect concentration (IC50) that inhibits 50% of cancer cell growth was determined.

[3] = reference value for free drug in mice; not among the administered groups; cited from earlier work

Row | SMILES | half-life [1] [h] | pIC50 [2] | T1/2 of free gemcitabine in mice [3] [h]
1 | Nc1nc2[nH]cc(CCc3ccc(C(=O)N[C@@H](CCC(=O)O)C(=O)O)cc3)c2c(=O)[nH]1 [drug aqueous solution, pemetrexed disodium heptahydrate] | 2 |  | 
2 | Nc1ccn([C@@H]2O[C@H](CO)[C@@H](O)C2(F)F)c(=O)n1 [free drug, gemcitabine hydrochloride] |  | 8.15 | 0.7

— patent publication US10646442B2, “Liposome composition and method for producing same” (FUJIFILM Corporation, priority 2014, dated 2020)
